Results published in the NIST ThermoML archive (doi:10.1016/j.jct.2006.10.008).

Experiments:
[1] = excess molar enthalpy (molar enthalpy of mixing); xn = mol fraction of the nth substance listed; conditions: 298.15 K, 101 kPa, Liquid, Calvet calorimetry
[2] = xn = mol fraction of the nth substance listed; conditions: 298.15 K, 101 kPa, Liquid

CCCCCOC=O [pentyl methanoate] + ClCCCCCCCl
Conditions | excess molar enthalpy [kcal/mol] | mass density [kg/m3]
[1], x1 = 0.0697 | -0.00265 | –
[1], x1 = 0.162 | -0.00595 | –
[1], x1 = 0.2559 | -0.0114 | –
[1], x1 = 0.3406 | -0.0172 | –
[1], x1 = 0.4168 | -0.0225 | –
[1], x1 = 0.4813 | -0.0253 | –
[1], x1 = 0.4927 | -0.0259 | –
[1], x1 = 0.5399 | -0.0275 | –
[1], x1 = 0.5935 | -0.0264 | –
[1], x1 = 0.6653 | -0.0239 | –
[1], x1 = 0.731 | -0.0207 | –
[1], x1 = 0.8005 | -0.0167 | –
[1], x1 = 0.8731 | -0.0112 | –
[1], x1 = 0.9459 | -0.00559 | –
[2], x1 = 0.0731 | – | 1051.9
[2], x1 = 0.1352 | – | 1041.69
[2], x1 = 0.1967 | – | 1031.48
[2], x1 = 0.3212 | – | 1010.41
[2], x1 = 0.3822 | – | 999.88
[2], x1 = 0.4398 | – | 989.79
[2], x1 = 0.558 | – | 968.7
[2], x1 = 0.6153 | – | 958.24
[2], x1 = 0.6723 | – | 947.69
[2], x1 = 0.7282 | – | 937.22
[2], x1 = 0.7836 | – | 926.72
[2], x1 = 0.839 | – | 916.1
[2], x1 = 0.893 | – | 905.58
[2], x1 = 0.9462 | – | 895.13

CCCCCOC=O [pentyl methanoate] + ClCCCCCCl
Conditions | excess molar enthalpy [kcal/mol] | mass density [kg/m3]
[1], x1 = 0.0613 | -0.00304 | –
[1], x1 = 0.141 | -0.00758 | –
[1], x1 = 0.2146 | -0.0133 | –
[1], x1 = 0.2884 | -0.0206 | –
[1], x1 = 0.3563 | -0.0273 | –
[1], x1 = 0.4177 | -0.0314 | –
[1], x1 = 0.4725 | -0.0349 | –
[1], x1 = 0.5239 | -0.0355 | –
[1], x1 = 0.5551 | -0.0363 | –
[1], x1 = 0.6165 | -0.0347 | –
[1], x1 = 0.6887 | -0.0321 | –
[1], x1 = 0.7706 | -0.0272 | –
[1], x1 = 0.8586 | -0.0187 | –
[1], x1 = 0.9347 | -0.00997 | –
[2], x1 = 0.0607 | – | 1082.26
[2], x1 = 0.1185 | – | 1069.95
[2], x1 = 0.1761 | – | 1057.7
[2], x1 = 0.2336 | – | 1045.52
[2], x1 = 0.2924 | – | 1033.04
[2], x1 = 0.3501 | – | 1020.86
[2], x1 = 0.4661 | – | 996.38
[2], x1 = 0.5254 | – | 983.92
[2], x1 = 0.6434 | – | 959.15
[2], x1 = 0.7028 | – | 946.7
[2], x1 = 0.7612 | – | 934.48
[2], x1 = 0.8194 | – | 922.34
[2], x1 = 0.8788 | – | 909.95
[2], x1 = 0.9368 | – | 897.88

CCCCCOC=O [pentyl methanoate] + ClCCCCCl
Conditions | excess molar enthalpy [kcal/mol] | mass density [kg/m3]
[1], x1 = 0.0558 | -0.00368 | –
[1], x1 = 0.1297 | -0.0102 | –
[1], x1 = 0.2099 | -0.0181 | –
[1], x1 = 0.2822 | -0.0275 | –
[1], x1 = 0.3497 | -0.0373 | –
[1], x1 = 0.4176 | -0.0442 | –
[1], x1 = 0.4615 | -0.0492 | –
[1], x1 = 0.4847 | -0.0503 | –
[1], x1 = 0.5352 | -0.0522 | –
[1], x1 = 0.5989 | -0.0512 | –
[1], x1 = 0.6703 | -0.0498 | –
[1], x1 = 0.7496 | -0.0436 | –
[1], x1 = 0.8354 | -0.0321 | –
[1], x1 = 0.9293 | -0.0167 | –
[2], x1 = 0.0535 | – | 1118.26
[2], x1 = 0.1055 | – | 1103.42
[2], x1 = 0.1566 | – | 1089.12
[2], x1 = 0.2106 | – | 1074.27
[2], x1 = 0.2635 | – | 1060
[2], x1 = 0.3199 | – | 1045.06
[2], x1 = 0.3768 | – | 1030.28
[2], x1 = 0.4344 | – | 1015.59
[2], x1 = 0.4908 | – | 1001.46
[2], x1 = 0.5505 | – | 986.81
[2], x1 = 0.6109 | – | 972.26
[2], x1 = 0.6726 | – | 957.67
[2], x1 = 0.7351 | – | 943.19
[2], x1 = 0.7986 | – | 928.74
[2], x1 = 0.8646 | – | 914.02
[2], x1 = 0.9292 | – | 899.89

CCCCCOC=O [pentyl methanoate] + ClCCCCl
Conditions | excess molar enthalpy, [1] [kcal/mol] | mass density, [2] [kg/m3]
x1 = 0.0471 | – | 1159.68
x1 = 0.0477 | -0.00664 | –
x1 = 0.0911 | – | 1142.71
x1 = 0.1093 | -0.0151 | –
x1 = 0.1377 | – | 1125.33
x1 = 0.1729 | -0.0245 | –
x1 = 0.1848 | – | 1108.29
x1 = 0.2341 | – | 1091.1
x1 = 0.2358 | -0.0341 | –
x1 = 0.2905 | -0.0437 | –
x1 = 0.3403 | – | 1056.06
x1 = 0.3427 | -0.0529 | –
x1 = 0.3933 | -0.0605 | –
x1 = 0.4528 | – | 1021.65
x1 = 0.4564 | -0.0661 | –
x1 = 0.5122 | -0.0678 | 1004.48
x1 = 0.5719 | -0.0682 | –
x1 = 0.5737 | – | 987.37
x1 = 0.6379 | – | 970.23
x1 = 0.6452 | -0.0655 | –
x1 = 0.7034 | – | 953.41
x1 = 0.7254 | -0.0585 | –
x1 = 0.7721 | – | 936.49
x1 = 0.8109 | -0.045 | –
x1 = 0.8438 | – | 919.53
x1 = 0.9161 | -0.0244 | –
x1 = 0.9188 | – | 902.44

CCCCCOC=O [pentyl methanoate] + ClCCCl
Conditions | excess molar enthalpy [kcal/mol] | mass density [kg/m3]
[1], x1 = 0.0406 | -0.0082 | –
[1], x1 = 0.0934 | -0.0198 | –
[1], x1 = 0.1501 | -0.0337 | –
[1], x1 = 0.2054 | -0.0459 | –
[1], x1 = 0.2613 | -0.0583 | –
[1], x1 = 0.3157 | -0.0674 | –
[1], x1 = 0.3653 | -0.0765 | –
[1], x1 = 0.4153 | -0.08382 | –
[1], x1 = 0.4604 | -0.08886 | –
[1], x1 = 0.5014 | -0.09156 | –
[1], x1 = 0.5593 | -0.0925 | –
[1], x1 = 0.6338 | -0.08788 | –
[1], x1 = 0.7235 | -0.075 | –
[1], x1 = 0.8158 | -0.055 | –
[1], x1 = 0.9141 | -0.0302 | –
[2], x1 = 0.0396 | – | 1221.77
[2], x1 = 0.0779 | – | 1199.93
[2], x1 = 0.1181 | – | 1178.31
[2], x1 = 0.1601 | – | 1156.97
[2], x1 = 0.2047 | – | 1135.53
[2], x1 = 0.2505 | – | 1114.67
[2], x1 = 0.3008 | – | 1093.1
[2], x1 = 0.3529 | – | 1072.02
[2], x1 = 0.4074 | – | 1051.23
[2], x1 = 0.4655 | – | 1030.4
[2], x1 = 0.5288 | – | 1009.11
[2], x1 = 0.5948 | – | 988.32
[2], x1 = 0.6639 | – | 967.94
[2], x1 = 0.7399 | – | 946.95
[2], x1 = 0.8201 | – | 926.19
[2], x1 = 0.906 | – | 905.54
